# Results as given in patent US8101766B2, “Crystalline form of a biphenyl compound” (Theravance, Inc., priority 2004, dated 2012).
# Experiments:
# [1] = target: β2 adrenergic receptor (Homo sapiens, UniProt P07550); assay: Radioligand binding assay for human β2 adrenergic receptor; parameters: expressed in transfected cells; conditions: radioligand displacement, CHO cell membranes
# Procedure: The cell monolayer was lifted with 2 mM EDTA in PBS. […] All membranes were stored frozen in aliquots at −80° C. or used immediately.
# [2] = system: acetylcholine-induced or histamine-induced bronchoconstriction; assay: Duration of bronchoprotection in guinea pig models of acetylcholine-induced or histamine-induced bronchoconstriction (model not specified for the result); format: in vivo; conditions: inhalation
# Procedure: Duration of Bronchoprotection in Guinea Pig Models of Acetylcholine-Induced or Histamine-Induced Bronchoconstriction
# To isolate muscarinic antagonist activity in the acetylcholine-induced bronchoconstriction model, the animals were administered propanolol, a compound that blocks β receptor activity, prior to the administration of acetylcholine. Duration of bronchoprotection in the histamine-induced bronchoconstriction model reflects β2 adrenergic receptor agonist activity.
# Groups of 6 male guinea pigs (Duncan-Hartley (HsdPoc:DH) Harlan, Madison, Wis.) weighing between 250 and 350 g were individually identified by cage cards. Throughout the study, animals were allowed access to food and water ad libitum.
# Test compounds were administered via inhalation over 10 minutes in a whole-body exposure dosing chamber (R&S Molds, San Carlos, Calif.). […] This value was measured gravimetrically by comparing pre- and post-nebulization weights of the filled nebulizer.
# The bronchoprotective effects of test compounds administered via inhalation were evaluated using whole body plethysmography at 1.5, 24, 48 and 72 hours post-dose. […]
# Once it was determined that baseline values were within the range of 0.3-0.9 mL/cm H2O for compliance and within the range of 0.1-0.199 cm H2O/mL per second for resistance, the pulmonary evaluation was initiated. […]
# Chain of β2 adrenergic receptor (P07550 whole entry): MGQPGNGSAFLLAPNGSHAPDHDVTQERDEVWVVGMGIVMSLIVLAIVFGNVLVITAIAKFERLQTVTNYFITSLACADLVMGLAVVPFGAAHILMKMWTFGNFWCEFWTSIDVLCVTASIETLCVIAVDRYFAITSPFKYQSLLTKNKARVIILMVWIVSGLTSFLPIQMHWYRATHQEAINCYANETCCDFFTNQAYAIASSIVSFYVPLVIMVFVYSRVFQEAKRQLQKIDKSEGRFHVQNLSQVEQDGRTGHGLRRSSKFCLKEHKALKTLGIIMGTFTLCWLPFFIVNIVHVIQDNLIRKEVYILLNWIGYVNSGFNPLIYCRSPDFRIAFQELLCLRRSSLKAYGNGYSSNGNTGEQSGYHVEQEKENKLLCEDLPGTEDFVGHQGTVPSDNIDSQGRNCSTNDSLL
smiles,measurement,setting,value
"COc1cc(NC(=O)CCN2CCC(OC(=O)Nc3ccccc3-c3ccccc3)CC2)c(Cl)cc1CNC[C@H](O)c1ccc(O)c2[nH]c(=O)ccc12 [compound of formula I, biphenyl-2-ylcarbamic acid 1-[2-(2-chloro-4-{[(R)-2-hydroxy-2-(8-hydroxy-2-oxo-1,2-dihydroquinolin-5-yl)ethylamino]methyl}-5-methoxyphenylcarbamoyl)ethyl]piperidin-4-yl ester]",Ki,[1],< 10 nM
same,duration (PD T1/2) of brochoprotective activity,[2],at least 24 hours
